Calls of active or inactive are those of the source. The rule behind the calls is not given here.
Key:
[1] = biological target: Cytochrome P450 3A4 (Homo sapiens, UniProt P08684); assay: Drug metabolism assessed as human CYP3A4-mediated N-(4-fluoro-3-(6-(3-methylpyri din-2-yl)-[1,2,4]triazolo[1,5- a]pyrimidin-2-yl)phenyl)-2-(hy droxymethyl)-4-methyloxazole-5 -carboxamide formation; type: ADME; settings: recombinant enzyme
[2] = biological target: T1, Cytochrome P450 1A1 (Homo sapiens, UniProt P04798); assay: Drug metabolism assessed as human CYP1A1-mediated N-(4-fluoro-3-(6-(3-methylpyri din-2-yl)-[1,2,4]triazolo[1,5- a]pyrimidin-2-yl)phenyl)-2-(hy droxymethyl)-4-methyloxazole-5 -carboxamide formation; type: ADME; settings: recombinant enzyme
T1 sequence (P04798 whole entry): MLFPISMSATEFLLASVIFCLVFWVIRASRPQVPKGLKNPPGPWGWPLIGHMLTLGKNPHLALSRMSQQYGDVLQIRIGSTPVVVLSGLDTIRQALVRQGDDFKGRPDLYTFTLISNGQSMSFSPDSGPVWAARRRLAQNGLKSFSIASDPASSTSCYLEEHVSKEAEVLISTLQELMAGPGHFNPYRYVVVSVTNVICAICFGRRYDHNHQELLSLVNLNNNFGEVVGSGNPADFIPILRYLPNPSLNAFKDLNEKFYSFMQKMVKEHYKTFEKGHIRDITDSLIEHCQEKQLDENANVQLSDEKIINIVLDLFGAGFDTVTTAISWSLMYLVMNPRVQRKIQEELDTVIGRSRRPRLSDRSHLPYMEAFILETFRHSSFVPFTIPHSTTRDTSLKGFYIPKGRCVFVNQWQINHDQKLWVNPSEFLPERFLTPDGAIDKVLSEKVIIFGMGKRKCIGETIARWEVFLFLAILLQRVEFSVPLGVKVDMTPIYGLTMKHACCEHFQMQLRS

[3] = Drug level in rat hepatocytes assessed as compound abundance level at 10 uM incubated for 4 hrs by UV chromatography; type: ADME, cell-based, Hepatocyte
[4] = Toxicity in rat by vivo micronucleus test
[5] = tested on: Leishmania donovani; assay: Antiparasitic activity against Leishmania donovani MHOM/ET/67/HU3 (ATCC) infected in BALB/c mouse model of visceral leishmaniasis assessed as parasite burden in liver at 10 mg/kg, po BID for 8 days by qPCR analysis (reference value: 100%); type: functional; settings: time 8 day
[6] = tested on: Leishmania donovani; assay: Antiparasitic activity against Leishmania donovani MHOM/ET/67/HU3 (ATCC) infected in BALB/c mouse model of visceral leishmaniasis assessed as parasite burden in liver at 1 mg/kg, po BID for 8 days by qPCR analysis (reference value: 100%); type: functional; settings: time 8 day
[7] = tested on: Leishmania donovani; assay: Antiparasitic activity against Leishmania donovani MHOM/ET/67/HU3 (ATCC) infected in BALB/c mouse model of visceral leishmaniasis assessed as parasite burden in liver at 0.3 mg/kg, po BID for 8 days by qPCR analysis (reference value: 100%); type: functional; settings: time 8 day
[8] = Drug level in human hepatocytes assessed as compound abundance level at 10 uM incubated for 4 hrs by UV chromatography; type: ADME, cell-based, Hepatocyte
[9] = tested on: Leishmania donovani; assay: Antiparasitic activity against Leishmania donovani MHOM/ET/67/HU3 (ATCC) infected in BALB/c mouse model of visceral leishmaniasis assessed as parasite burden in liver at 3 mg/kg, po BID for 8 days by qPCR analysis (reference value: 100%); type: functional; settings: time 8 day
[10] = biological target: T2, Cytochrome P450 1A2 (Homo sapiens, UniProt P05177); assay: Drug metabolism assessed as human CYP1A2-mediated N-(4-fluoro-3-(6-(3-methylpyri din-2-yl)-[1,2,4]triazolo[1,5- a]pyrimidin-2-yl)phenyl)-2-(hy droxymethyl)-4-methyloxazole-5 -carboxamide formation; type: ADME; settings: recombinant enzyme
T2 sequence (P05177 whole entry): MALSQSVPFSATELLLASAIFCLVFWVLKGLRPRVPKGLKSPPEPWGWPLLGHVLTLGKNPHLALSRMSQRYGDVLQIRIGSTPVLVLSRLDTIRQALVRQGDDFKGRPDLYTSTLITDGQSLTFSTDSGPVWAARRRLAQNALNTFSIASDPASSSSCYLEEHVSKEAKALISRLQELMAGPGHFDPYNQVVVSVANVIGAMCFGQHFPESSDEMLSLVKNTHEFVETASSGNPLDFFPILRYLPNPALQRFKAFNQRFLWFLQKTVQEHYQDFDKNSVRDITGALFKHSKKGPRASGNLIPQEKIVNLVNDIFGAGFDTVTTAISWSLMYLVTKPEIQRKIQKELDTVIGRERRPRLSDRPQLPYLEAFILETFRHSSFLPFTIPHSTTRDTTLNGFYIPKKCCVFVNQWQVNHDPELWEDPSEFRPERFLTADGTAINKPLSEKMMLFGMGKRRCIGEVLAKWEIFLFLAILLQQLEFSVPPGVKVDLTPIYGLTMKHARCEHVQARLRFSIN

[11] = Drug level in dog hepatocytes assessed as compound abundance level at 10 uM incubated for 4 hrs by UV chromatography; type: ADME, cell-based, Canis lupus familiaris, Hepatocyte
[12] = Drug level in monkey hepatocytes assessed as compound abundance level at 10 uM incubated for 4 hrs by UV chromatography; type: ADME, cell-based, Macaca mulatta, Hepatocyte; settings: rhesus monkey
[13] = biological target: T3, Cytochrome P450 2D15 (Canis lupus familiaris, UniProt Q29473); assay: Drug metabolism assessed as dog CYP2D15-mediated N-(4-fluoro-3-(6-(3-methylpyri din-2-yl)-[1,2,4]triazolo[1,5- a]pyrimidin-2-yl)phenyl)-2-(hy droxymethyl)-4-methyloxazole-5 -carboxamide formation; type: ADME; settings: recombinant enzyme
T3 sequence (Q29473 whole entry): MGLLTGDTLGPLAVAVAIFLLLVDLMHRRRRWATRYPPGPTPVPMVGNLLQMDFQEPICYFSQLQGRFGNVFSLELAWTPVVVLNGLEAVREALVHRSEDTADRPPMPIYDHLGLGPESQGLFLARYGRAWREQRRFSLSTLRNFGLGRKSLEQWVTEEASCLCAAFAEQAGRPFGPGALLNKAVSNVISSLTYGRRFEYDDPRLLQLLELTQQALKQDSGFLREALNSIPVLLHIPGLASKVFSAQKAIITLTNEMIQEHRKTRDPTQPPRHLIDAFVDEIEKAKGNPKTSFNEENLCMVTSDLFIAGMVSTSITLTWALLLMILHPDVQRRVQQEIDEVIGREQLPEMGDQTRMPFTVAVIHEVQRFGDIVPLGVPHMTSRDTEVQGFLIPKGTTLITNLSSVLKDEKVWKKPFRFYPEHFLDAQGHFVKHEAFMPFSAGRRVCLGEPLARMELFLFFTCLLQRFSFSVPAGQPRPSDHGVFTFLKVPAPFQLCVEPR

[14] = Drug level in mouse hepatocytes assessed as compound abundance level at 10 uM incubated for 4 hrs by UV chromatography; type: ADME, cell-based, Hepatocyte
[15] = Genotoxicity in Salmonella typhimurium by Ames test; type: toxicity; settings: salmonella enterica subsp. enterica serovar typhimurium
[16] = tested on: Leishmania major; assay: Antiparasitic activity against Leishmania major MHOM/IR/-/173 promastigotes infected in BALB/c mouse model of cutaneous leishmaniasis assessed as healing of parasite-induced skin lesions at 20 mg/kg, po BID for 10 days; type: functional, organism-based; settings: time 10.0 day
[17] = biological target: T4, Cytochrome P450 2J2 (Homo sapiens, UniProt P51589); assay: Drug metabolism assessed as human CYP2j2-mediated N-(4-fluoro-3-(6-(3-methylpyri din-2-yl)-[1,2,4]triazolo[1,5- a]pyrimidin-2-yl)phenyl)-2-(hy droxymethyl)-4-methyloxazole-5 -carboxamide formation; type: ADME; settings: recombinant enzyme
T4 sequence (P51589 whole entry): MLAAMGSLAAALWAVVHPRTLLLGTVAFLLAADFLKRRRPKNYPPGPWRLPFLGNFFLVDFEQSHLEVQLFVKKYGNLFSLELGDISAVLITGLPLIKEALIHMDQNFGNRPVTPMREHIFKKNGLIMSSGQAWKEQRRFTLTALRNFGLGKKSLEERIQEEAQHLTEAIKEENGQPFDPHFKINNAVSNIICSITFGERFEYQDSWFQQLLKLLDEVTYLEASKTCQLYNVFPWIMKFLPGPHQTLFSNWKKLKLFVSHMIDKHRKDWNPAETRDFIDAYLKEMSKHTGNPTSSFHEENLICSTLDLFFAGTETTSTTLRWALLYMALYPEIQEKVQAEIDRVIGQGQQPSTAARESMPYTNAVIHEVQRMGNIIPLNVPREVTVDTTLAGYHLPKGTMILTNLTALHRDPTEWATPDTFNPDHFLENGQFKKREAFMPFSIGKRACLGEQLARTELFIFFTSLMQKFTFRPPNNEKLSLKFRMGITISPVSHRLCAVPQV

[18] = Drug concentration in plasma of Leishmania donovani MHOM/ET/67/HU3 (ATCC) infected BALB/c mouse model of visceral leishmaniasis at 0.3 to 10 mg/kg, po BID for 8 days; type: ADME, organism-based; settings: in vivo, 192 h, dose 0.3-10 mg/kg, time 8 day
[19] = Inhibition of chymotrypsin-like activity of Leishmania tarentolae proteasome beta 5 Y113F mutant
[20] = tested on: Leishmania tarentolae; assay: Inhibition of chymotrypsin-like activity of Leishmania tarentolae proteasome beta 4 F24L mutant
[21] = tested on: Leishmania tarentolae; assay: Inhibition of chymotrypsin-like activity of Leishmania tarentolae proteasome beta 4
[22] = in vitro; settings: rat, liver microsomes
[23] = tested on: Leishmania donovani; assay: Antiparasitic activity against Leishmania donovani MHOM/ET/67/HU3 (ATCC) infected in BALB/c mouse model of visceral leishmaniasis assessed as reduction in parasite burden in liver at 12 mg/kg, po QD for 8 days by qPCR analysis relative to control; type: functional, organism-based; settings: time 8.0 day
[24] = tested on: Leishmania donovani; assay: Antiparasitic activity against Leishmania donovani MHOM/ET/67/HU3 (ATCC) infected in BALB/c mouse model of visceral leishmaniasis assessed as parasite burden in liver at 12 mg/kg, po QD for 8 days by qPCR analysis (reference value: 100%); type: functional; settings: time 8 day
[25] = in vitro; settings: rat, liver microsomes; remark: listed apart in the source
Description: Metabolic stability in rat liver microsomes assessed as hepatic extraction ratio after 1 hr by LC-MS/MS analysis

[26] = Drug uptake in beagle dog at 10 mg/kg, po measured up to 24 hrs relative to LXE408; type: ADME, organism-based, Canis lupus familiaris; settings: in vivo
[27] = tested on: Leishmania donovani; assay: Antiparasitic activity against Leishmania donovani MHOM/ET/67/HU3 (ATCC) infected in primary BALB/c mouse peritoneal macrophages assessed as reduction in parasite proliferation incubated for 120 hrs by SYBR Green I staining based assay; type: functional, organism-based; settings: Macrophage
[28] = in vitro; settings: rat, liver microsomes; remark: listed apart in the source
[29] = in vitro; settings: mouse, liver microsomes
Description: Metabolic stability in mouse liver microsomes assessed as hepatic extraction ratio after 1 hr by LC-MS/MS analysis

[30] = tested on: Leishmania tarentolae; assay: Noncompetitive inhibition of chymotrypsin-like activity of Leishmania tarentolae proteasome beta 5 using fluorogenic peptide Suc-LLVY-[Rh110]-[Dpro] as substrate

Cytochrome P450 3A4, sequence (P08684 whole entry): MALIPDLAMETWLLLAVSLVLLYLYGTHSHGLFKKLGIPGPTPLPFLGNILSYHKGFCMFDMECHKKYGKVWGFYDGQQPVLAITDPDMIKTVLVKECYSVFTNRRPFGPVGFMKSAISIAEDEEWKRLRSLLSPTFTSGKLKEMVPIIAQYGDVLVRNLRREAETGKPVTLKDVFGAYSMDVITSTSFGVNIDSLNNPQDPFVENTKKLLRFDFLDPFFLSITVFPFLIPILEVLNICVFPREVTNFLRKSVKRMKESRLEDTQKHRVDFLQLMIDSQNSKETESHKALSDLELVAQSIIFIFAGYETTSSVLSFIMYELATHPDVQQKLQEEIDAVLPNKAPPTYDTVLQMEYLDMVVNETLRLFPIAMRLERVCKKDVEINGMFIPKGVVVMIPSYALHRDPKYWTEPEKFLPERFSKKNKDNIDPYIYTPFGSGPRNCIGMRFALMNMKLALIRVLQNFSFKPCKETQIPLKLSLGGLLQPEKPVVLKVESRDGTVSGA

## Cc1nc(C)c(C(=O)Nc2ccc(F)c(-c3nc4ncc(-c5ncccc5C)cn4n3)c2)o1 [LXE-408]
[1]
  Drug metabolism: Metabolite_Detected
[2]
  Drug metabolism: Metabolite_Detected
[3]
  Drug uptake: > 75%
[4]
  Activity: Non-Toxic
[5]
  Activity: <0.16%
[6]
  Activity: 5.1%
[7]
  Activity: 85%
[8]
  Drug uptake: > 75%
[9]
  Activity: <0.2%
[10]
  Drug metabolism: Metabolite_Detected
[11]
  Drug uptake: > 75%
[12]
  Drug uptake: > 75%
[13]
  Drug metabolism: Metabolite_Detected
[14]
  Drug uptake: > 75%
[15]
  Activity: Non-Toxic
[16]
  Activity: Active
[17]
  Drug metabolism: Metabolite_Detected
[18]
  Drug uptake: Dose-dependent effect
[19]
  inhibition: inactive

## CC(C)C[C@H](NC(=O)[C@H](Cc1ccccc1)NC(=O)c1cnccn1)B(O)O
[20]
  inhibition: Active
[21]
  inhibition: Active

## COc1cccnc1-c1cnc2nc(-c3cc(NC(=O)c4oc(C)nc4C)ccc3F)nn2c1
[22]
  hepatic extraction ratio at 1 h: < 0.21

## CCCCCCCCCCCCCCCCOP(=O)([O-])OCC[N+](C)(C)C [MILTEFOSINE]
[23]
  Activity: Active
[24]
  Activity: 4.2%

## Cc1nc(C)c(C(=O)Nc2ccc(F)c(-c3nc4ncc(-c5ncccc5C(F)F)cn4n3)c2)o1
[25]
  hepatic extraction ratio at 1 h: < 0.18

## Cc1nc(C)c(C(=O)Nc2ccc(F)c(-c3nc4ncc(-c5ncccc5CO)cn4n3)c2)o1
[3]
  Drug uptake: <= 25%
[8]
  Drug uptake: <= 25%
[11]
  Drug uptake: <= 25%
[26]
  Drug uptake: 9.1%
[12]
  Drug uptake: <= 25%
[14]
  Drug uptake: <= 25%

## Cc1cccnc1-c1cnc2nc(-c3cc(NC(=O)c4oc(CO)nc4C)ccc3F)nn2c1
[3]
  Drug uptake: <= 25%
[8]
  Drug uptake: <= 25%
[11]
  Drug uptake: 25%
[12]
  Drug uptake: <= 25%
[27]
  EC50: > 5 µM

## Cc1nc(C)c(C(=O)Nc2ccc(F)c(-c3nc4ncc(-c5ncccc5Cl)cn4n3)c2)o1
[28]
  hepatic extraction ratio at 1 h: < 0.21
[29]
  hepatic extraction ratio at 1 h: < 0.21
[22]
  hepatic extraction ratio at 1 h: 0.21

## Cc1nc(C)c(C(=O)Nc2ccc(F)c(-c3nc4ncc(-c5ccccn5)cn4n3)c2)o1
[30]
  inhibition: Active

## Cc1nc(CO)c(C(=O)Nc2ccc(F)c(-c3nc4ncc(-c5ncccc5C)cn4n3)c2)o1
[3]
  Drug uptake: <= 25%
[8]
  Drug uptake: <= 25%
[11]
  Drug uptake: <= 25%
[26]
  Drug uptake: 2.3%
[12]
  Drug uptake: <= 25%
[27]
  EC50: > 5 µM
[14]
  Drug uptake: <= 25%
